Experimental findings from US20260022114A1, “N-(5-SUBSTITUTED-[(1,3,4-THIADIAZOLYL) OR (1,3-THIAZOLYL)](SUBSTITUTED)CARBOXAMIDE COMPOUNDS, PHARMACEUTICAL COMPOSITIONS, AND METHODS OF PREPARING THE AMIDE COMPOUNDS AND OF THEIR USE” (Repare Therapeutics Inc., priority 2022, published 2026) are described below.

In series [1] the target is T1, CYP3A4 (Homo sapiens (Human), UniProt P08684). The series can be described thus: Reversible CYP inhibition in human liver microsomes (midazolam). Type of series: in vitro ADME. As for the experimental part: A seven-point semi-log dilution of each test compound (up to 30 μM) or positive control inhibitors for CYP2C9 (up to 1000 nM sulphenazole), CYP2D6 (up to 500 nM quinidine) and CYP3A4 (up to 250 nM ketoconazole) were dissolved in DMSO and added to the incubation plate using a Tecan 300 (normalized for 0.3% DMSO content). Final reaction conditions were: human liver microsomes (0.1 mg/mL), potassium phosphate buffer 100 mM pH 7.4, 1 mM magnesium chloride, 5 μM diclofenac, 5 μM dextromethorphan and 2.5 μM midazolam. After a pre-incubation at 37° C. The reaction was started with the addition of NADPH solution at the final concentration of 1 mM and carried out at 37° C. for 5 minutes. The reaction was stopped by the addition of 1 volume of cold acetonitrile with internal standard (labetalol) to the incubation plate. The incubation plate was centrifuged at 3000 rpm for 10 minutes to precipitate proteins, and the supernatant was analyzed by LC-MS/MS. Metabolite area ratio (4-OH-diclofenac, dextrorphan and 1-OH-midazolam) versus ISTD area ratio was used as the quantitative signal. Data were analyzed using the plot log of concentration (x-axis) versus the percentage of inhibition (y axis) and the IC50, Hill Slope and R^2 were determined.
T1 sequence (P08684 whole entry): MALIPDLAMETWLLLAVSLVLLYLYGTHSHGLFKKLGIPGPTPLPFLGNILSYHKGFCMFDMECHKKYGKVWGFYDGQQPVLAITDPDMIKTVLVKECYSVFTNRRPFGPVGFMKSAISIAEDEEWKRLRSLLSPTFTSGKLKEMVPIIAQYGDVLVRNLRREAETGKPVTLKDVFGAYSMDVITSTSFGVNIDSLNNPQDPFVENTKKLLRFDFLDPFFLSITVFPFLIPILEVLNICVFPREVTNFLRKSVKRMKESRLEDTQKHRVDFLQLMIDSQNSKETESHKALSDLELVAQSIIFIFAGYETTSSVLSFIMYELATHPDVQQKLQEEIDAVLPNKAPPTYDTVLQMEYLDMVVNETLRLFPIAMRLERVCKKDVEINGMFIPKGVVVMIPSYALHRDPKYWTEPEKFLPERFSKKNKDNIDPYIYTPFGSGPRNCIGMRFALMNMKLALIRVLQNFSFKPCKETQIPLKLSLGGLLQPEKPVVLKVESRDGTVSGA
On the technique in general: Microsomes from liver hold many membrane-bound enzymes, among them those of drug oxidation.

In series [2] the target is PXR nuclear receptor (Homo sapiens (Human), UniProt O75469). The series can be described thus: PXR activation luciferase reporter assay. The series is classed as cell-based. To be noted: 0.03-10 μM test compound; for PXR activation (% Max activity): percentage of the response of Rifampicin at 10 μM; for fold induction at 24 h: versus vehicle-treated cells, read-out: PXR activation (Max fold induction). As for the experimental part:
An expression vector harboring a full-length PXR nuclear receptor plus the appropriate enhancers and promoters linked to the luciferase reporter gene were integrated into the tumor cells. Tumor cells transfected with the species-specific nuclear receptor and the corresponding response elements were seeded in a 96-well plate. Twenty-four hours after seeding, the cells were treated with six distinct concentrations (0.03-10 μM) of the test compound. The cells were then returned to the incubator for an additional 24 h. After this incubation period, the number of viable cells/well were determined using Promega's Cell Titer Fluor cytotoxicity assay. At the end of the assay, Promega's ONE-Glo was added to assess the receptor activation by monitoring reporter gene activity, and by comparing the results to vehicle-treated cells. Activation data were normalized to the number of viable cells/well. Results are expressed as a percentage of the response given by Rifampicin, the positive control, at a 10 μM dose.
In general terms: A reporter such as luciferase makes a cellular process visible.

The nature of series [3]: Liver microsomal stability assay. To be noted: pH 7.4; human liver microsomes, 1 μM compound. The series is classed as in vitro ADME. As for the experimental part: Liver microsomes were thawed on ice prior to use. The incubation mixtures were prepared in 96-well plates and contained test compound or control (1 μM), liver microsomes (0.5 mg of microsomal protein/mL), MgCl2 (5 mM), phosphate buffer (100 mM, pH 7.4), 0.01% DMSO and 1% acetonitrile. A T=0 aliquot was withdrawn after 10 min pre-incubation at 37° C. on a shaker. Reactions were initiated by the addition of NADPH (final concentration of 1 mM) and the plate was kept on a shaker at 37° C., further samples were withdrawn at 5, 15, 30, and 60 minutes. At each timepoint, the reactions were immediately terminated by adding of ice-cold acetonitrile containing internal standard to the withdrawn sample. The extracted samples were centrifuged for 10 minutes at 3200 rpm to pellet the precipitated microsomal protein, and the supernatant was combined 1:1 with water and analyzed by LC-MS/MS. Using the T=0 peak area ratio as 100%, the percentage of parent compound remaining was calculated. For each compound, the In percentage remaining versus incubation time was plotted and the slope of this linear regression (−k) was converted to an in vitro T1/2 value and CLint using the equations below.

Series [4] addresses T1, CYP3A4. The series can be described thus: Time-dependent inhibition (TDI), IC50 shift +/-NADPH, human liver microsomes. Type of series: in vitro ADME. To be noted: IC50 −NADPH divided by IC50 +NADPH. As for the experimental part: Test compound or positive control inhibitors (CYP2C9: Tienilic acid; CYP2D6: paroxetine; CYP3A4: mifepristone) were dissolved in DMSO and a semi-log dilution (up to 50.0 μM) was prepared to 2 incubation plates and normalized for a final DMSO content of 0.5%. Human liver microsomes were diluted at 1 mg/mL with 100 mM potassium phosphate buffer pH 7.4 (1 mM MgCl2) and added to both incubation plates. After pre-incubation at 37° C., the reaction was started with the addition of NADPH (+NADPH condition) or with water (−NADPH condition). Plates were incubated for 30 min and 8 μL were transferred to a second incubation plate containing 72 μL of 1 mM NADPH, 20 μM diclofenac (CYP2C9), 20 μM dextromethorphan (CYP2D6) and 10 μM midazolam (CYP3A4) in 100 mM potassium phosphate buffer pH 7.4 (1 mM MgCl2). Plates were incubated for 10 min and the reaction was stopped by the addition of cold acetonitrile containing internal standard (1:1 v/v). […] Metabolite area ratio (4-OH-diclofenac, dextrorphan and 1-OH-midazolam) versus internal standard area ratio was used as the quantitative signal. Data were analyzed using the plot log of concentration (x axis) versus the percentage of inhibition (y axis) and IC50. Hill Slope and R^2 were determined. The IC50 shift was then calculated by dividing the IC50-NADPH condition by the IC50 obtained in the +NADPH condition.

In series [5] the target is PolQ ATPase enzyme (1-894) (Homo sapiens (Human), UniProt O75417). As to the kind of experiment: Polθ ATPase enzymatic assay (0.5 nM enzyme concentration), ADP-Glo. The series is classed as biochemical. To be noted: 0.5 nM PolQ ATPase enzyme (1-894); average IC50. The essentials:
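Human PolQ ATPase domain (1-894), 0.5 nM, preincubated 15 min at rt with 10-point inhibitor series in 50 mM Tris pH 7.5, 10% glycerol, 5 mM DTT, 10 mM MgCl2, 0.1 mg/ml BSA.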
A general note: ADP-Glo first removes unused ATP, then detects ADP through luciferase.

Sequence of PolQ ATPase enzyme (1-894) (O75417 1-894): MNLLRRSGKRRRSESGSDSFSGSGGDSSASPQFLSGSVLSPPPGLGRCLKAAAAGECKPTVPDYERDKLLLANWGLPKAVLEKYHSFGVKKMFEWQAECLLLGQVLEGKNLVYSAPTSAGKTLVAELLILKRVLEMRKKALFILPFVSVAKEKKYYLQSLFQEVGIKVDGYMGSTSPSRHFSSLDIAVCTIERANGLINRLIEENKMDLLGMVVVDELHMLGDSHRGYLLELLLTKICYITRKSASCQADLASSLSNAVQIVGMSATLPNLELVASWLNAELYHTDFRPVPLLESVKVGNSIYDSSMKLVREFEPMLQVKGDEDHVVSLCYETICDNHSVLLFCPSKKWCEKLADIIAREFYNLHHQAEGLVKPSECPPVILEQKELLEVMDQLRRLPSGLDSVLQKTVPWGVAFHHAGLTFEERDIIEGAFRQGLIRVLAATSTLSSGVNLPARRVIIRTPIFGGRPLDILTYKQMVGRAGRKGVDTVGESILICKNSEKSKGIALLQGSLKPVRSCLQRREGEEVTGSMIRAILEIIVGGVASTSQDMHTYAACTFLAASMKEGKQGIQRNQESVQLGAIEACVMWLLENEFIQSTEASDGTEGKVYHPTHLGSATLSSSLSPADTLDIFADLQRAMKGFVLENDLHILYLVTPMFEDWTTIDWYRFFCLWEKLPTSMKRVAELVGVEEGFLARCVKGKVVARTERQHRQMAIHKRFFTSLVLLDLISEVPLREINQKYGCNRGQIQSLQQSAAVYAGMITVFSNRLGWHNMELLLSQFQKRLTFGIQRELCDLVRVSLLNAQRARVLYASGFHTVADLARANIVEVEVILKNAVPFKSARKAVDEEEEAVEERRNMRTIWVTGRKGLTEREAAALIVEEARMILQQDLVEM
Sequence of PXR nuclear receptor (O75469 whole entry): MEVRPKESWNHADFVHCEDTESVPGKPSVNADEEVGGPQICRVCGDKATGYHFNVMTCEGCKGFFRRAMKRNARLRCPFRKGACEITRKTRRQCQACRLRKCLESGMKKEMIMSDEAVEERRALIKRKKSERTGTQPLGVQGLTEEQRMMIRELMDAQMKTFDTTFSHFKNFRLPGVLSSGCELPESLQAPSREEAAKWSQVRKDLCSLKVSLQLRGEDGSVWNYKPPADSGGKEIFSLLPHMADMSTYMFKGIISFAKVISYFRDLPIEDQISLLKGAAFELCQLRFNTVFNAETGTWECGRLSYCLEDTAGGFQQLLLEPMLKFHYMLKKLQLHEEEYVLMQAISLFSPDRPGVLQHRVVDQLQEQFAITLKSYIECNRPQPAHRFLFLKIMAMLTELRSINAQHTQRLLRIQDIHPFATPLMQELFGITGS

`COc1cnc(Cl)cc1-c1cnccc1C(=O)Nc1nnc(C#CC2CC2)s1`: the IC50 in series [1] is above 30000 nM. In addition, in series [2], the “PXR activation (% Max activity)” value amounted to 5.0% and the fold induction at 24 h was found to be 1.8. Further, in series [3], the microsomal CLint at 1 μM was below 7.7 µL/min/mg. Moreover, the “Time-dependent CYP3A4 inhibition-shift after 30 min with NADPH” value in series [4] is on record as 1x.

Regarding `COc1ccc(F)cc1-c1cnccc1C(=O)Nc1nnc(C#Cc2ccc(C#N)cc2)s1` [Compound 473], the IC50 in series [1] came to 1110 nM; in series [5], 3.5 nM. In series [2], the “PXR activation (% Max activity)” value came to 2.0%. In addition, in series [2], the fold induction at 24 h is 1.3. The compound further showed a microsomal CLint at 1 μM in series [3] of 46.4 µL/min/mg. The “Time-dependent CYP3A4 inhibition-shift after 30 min with NADPH” value in series [4] was found to be 1x.

Compound `C#C[C@H]1C[C@@H](c2nnc(NC(=O)c3cnc(-n4ccc(C)cc4=O)cc3-c3cc(C(F)F)ncc3OC)s2)C1` [Compound 594] registered an IC50 in series [5] of 3 nM.

In turn, `C#C[C@H]1C[C@H](c2nnc(NC(=O)c3cnc(-n4ccc(C)cc4=O)cc3-c3cc(C(F)F)ncc3OC)s2)C1` [Compound 595] displayed an IC50 in series [5] of 2.9 nM.

Take `COc1cnc(C(F)F)cc1-c1cc(C#CCN2CC[S+]([O-])CC2)ncc1C(=O)Nc1nnc(C#CC2CC2)s1` [Compound 596]: the IC50 in series [5] worked out at 0.45 nM.

For `C=C1CC(c2nnc(NC(=O)c3cnc(-n4ccc(C)cc4=O)cc3-c3cc(C(F)F)ncc3OC)s2)C1` [Compound 597], the IC50 in series [5] is 3.6 nM.

In series [5], `COc1cnc(C(F)F)cc1-c1cc(C#CCn2cccn2)ncc1C(=O)Nc1nnc(C#CC2CC2)s1` [Compound 598] showed an IC50 of 15 nM.

Consider `COc1cnc(C(F)F)cc1-c1cc(C#CCn2cc(C)cn2)ncc1C(=O)Nc1nnc(C#CC2CC2)s1` [Compound 599], for which the IC50 in series [5] was 21 nM.

`COc1cnc(C(F)F)cc1-c1cc(C#CCN2CCCC2)ncc1C(=O)Nc1nnc(C#CC2CC2)s1` [Compound 600]: the IC50 in series [5] was 0.6 nM.

With `COc1cnc(C(F)F)cc1-c1cc(C#CCn2ccnc2)ncc1C(=O)Nc1nnc(C#CC2CC2)s1` [Compound 601], the IC50 in series [5] was 2.7 nM.

As for `COCc1nnc(NC(=O)c2cnc(-n3ccc(C)cc3=O)cc2-c2cc(C(F)F)ncc2OC)s1` [Compound 602], the IC50 in series [5] was 11 nM.

For `COc1cnc(C(F)F)cc1-c1cc(-n2ccc(C)cc2=O)ncc1C(=O)Nc1nnc(CC(=O)N(C)C)s1` [Compound 603], the IC50 in series [5] is 40 nM.

In series [5], `COc1cnc(C(F)F)cc1-c1cc(-n2cccc(Cl)c2=O)ncc1C(=O)Nc1nnc([C@H]2C[C@@H]2C(F)(F)F)s1` [Compound 607] gave an IC50 of 0.95 nM.

For `COc1cnc(C(F)F)cc1-c1cc(-n2cccc(Cl)c2=O)ncc1C(=O)Nc1nnc([C@H]2C[C@@H]2C)s1` [Compound 608], in series [5], the IC50 is 0.79 nM.

`COc1cnc(C(F)F)cc1-c1cc(C#CCN2CCOCC2)ncc1C(=O)Nc1nnc([C@H]2C[C@@H]2C(F)(F)F)s1` [Compound 609] returned an IC50 in series [5] of 3.1 nM.

With `COc1cnc(C(F)F)cc1-c1cc(-n2ccc(OC3COC3)cc2=O)ncc1C(=O)Nc1nnc(C#CC2CC2)s1` [Compound 610], the IC50 in series [5] worked out at 0.27 nM.

In turn, `COc1cnc(C(F)F)cc1-c1cc(-n2ccc(OC3CCN(C)CC3)cc2=O)ncc1C(=O)Nc1nnc(C#CC2CC2)s1` [Compound 611] gave an IC50 in series [5] of 1.2 nM.

Take `COc1cnc(C(F)F)cc1-c1cc(-n2ccc(N3CC4(COC4)C3)cc2=O)ncc1C(=O)Nc1nnc(C#CC2CC2)s1` [Compound 613]: the IC50 in series [5] was determined as 0.35 nM.

Turning to `COc1cnc(C(F)F)cc1-c1cc(-n2ccc(N(C)C3COC3)cc2=O)ncc1C(=O)Nc1nnc(C#CC2CC2)s1` [Compound 614], the IC50 in series [5] was 0.4 nM.

Compound `C#C[C@H]1C[C@@H]1c1nnc(NC(=O)c2cnc(-n3ccc(OC4COC4)cc3=O)cc2-c2cc(C(F)F)ncc2OC)s1` [Compound 617] came in with an IC50 in series [5] below 0.25 nM.

In the case of `COc1cnc(C(F)F)cc1-c1cc(-n2ccc(C)cc2=O)ncc1C(=O)Nc1nnc(COc2cnn(C)c2)s1` [Compound 621], the IC50 in series [5] came out at 6.3 nM.

Regarding `COc1cnc(C(F)F)cc1-c1cc(-n2ccc(C)cc2=O)ncc1C(=O)Nc1nnc([C@H]2C[C@@H]2C(F)F)s1` [Compound 623], the IC50 in series [5] was below 0.25 nM.

In the case of `C#C[C@H]1C[C@@H]1c1nnc(NC(=O)c2cnc(-n3ccc(Cl)cc3=O)cc2-c2cc(C(F)F)ncc2OC)s1` [Compound 624], in series [5], half-maximal inhibition (IC50) was put at 1.1 nM.

As to `C#C[C@H]1C[C@@H]1c1nnc(NC(=O)c2cnc(-n3ccc(N4CC5(COC5)C4)cc3=O)cc2-c2cc(C(F)F)ncc2OC)s1` [Compound 627], the midpoint of inhibition in series [5], the IC50, lay at 0.3 nM.

Turning to `COc1cnc(C(F)F)cc1-c1cc(C#CCN(C)C)ncc1C(=O)Nc1nnc(C#CC2CC2)s1` [Compound 628], the IC50 in series [5] is below 0.25 nM.

In turn, `COc1cnc(C(F)F)cc1-c1cc(C#CCC(C)(C)O)ncc1C(=O)Nc1nnc([C@@H]2C[C@H]2c2ccn(C)n2)s1` [Compound 630] registered an IC50 in series [5] of 8.5 nM.

In turn, `COc1cnc(C(F)F)cc1-c1cc(C#CCC(C)(C)O)ncc1C(=O)Nc1nnc([C@H]2C[C@@H]2c2ccn(C)n2)s1` [Compound 631] showed an IC50 in series [5] of 0.93 nM.

A word on the IC50: it is the point on the concentration scale where inhibition reaches its midpoint. As usually defined, the microsomal CLint is a measure of how fast metabolising enzymes remove a compound, apart from limits set by blood flow. A low value points to slow turnover.
